# Results taken from US20110263647A1 (AMGEN INC., priority 2009, published 2011).
# Counter-ions that a name gives are not always drawn.
# Biological target: T1, PKBα (Homo sapiens, UniProt P31749)
# T1 construct: fused on or other part: His6 tag is likely on the Upstate products
# Assay: PKB kinase assay (P33-labeled ATP, peptide substrate, filter plate)
# Assay type: biochemical
# Conditions: with respect to PKBα
# Description: The kinase assay for evaluating PKB activity comprises active PKB enzymes, a PKB specific substrate, and P^33-labeled ATP. Two form of PKBα enzymes were used, the full length PKBα and a kinase domain of PKBα with pleckstrin domain (amino acids 1-117) deleted. Both PKB enzymes were obtained from Upstate cell signaling solutions (Cat.# 14-276 and 14-341). The PKB substrate used is a synthetic peptide (ARKRERTYSFGHHA (SEQ ID NO: 1)) as described in Obata et al., J. Biol. Chem. 275 (46), 36108-36115 (2000). The phosphorylated substrate was captured by a phosphocellulose membrane filter plate (MILLIPORE) and measured by a Wallac Microbeta liquid scintillation counter (Perkin Elmer). Table 1 provides the IC50 values obtained for each of the examples with respect to PKBα.
# T1 sequence (P31749 118-472 limits assumed): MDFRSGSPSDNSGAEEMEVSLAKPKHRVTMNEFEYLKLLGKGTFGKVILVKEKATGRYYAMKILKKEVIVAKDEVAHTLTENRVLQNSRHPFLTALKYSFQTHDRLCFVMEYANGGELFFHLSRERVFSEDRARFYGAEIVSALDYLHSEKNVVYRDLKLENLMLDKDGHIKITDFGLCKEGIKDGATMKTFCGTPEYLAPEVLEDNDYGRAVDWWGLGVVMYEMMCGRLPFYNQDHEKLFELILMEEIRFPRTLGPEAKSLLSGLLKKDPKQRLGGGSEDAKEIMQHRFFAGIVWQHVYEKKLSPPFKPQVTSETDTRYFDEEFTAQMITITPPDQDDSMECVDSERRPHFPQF
row,IC50 [nM],Structure (SMILES)
1,50 to 1000,"NC(CCc1nc(CO)c(-c2ccc3cnc(F)cc3c2)s1)Cc1ccc(C(F)(F)F)cc1 (racemic) [Example 51, (±)-(2-(3-Amino-4-(4-(trifluoromethyl)phenyl)butyl)-5-(3-fluoroisoquinolin-6-yl)thiazol-4-yl)methanol]"
2,< 50,"COCc1nc(NCC(N)[C@@H](C)c2ccc(C(F)(F)F)cc2)sc1-c1ccc2cnc(F)cc2c1 (stereo in doubt) [Example 27, N-((2R,3S)-2-Amino-3-(4-(trifluoromethyl)phenyl)butyl)-5-(3-fluoroisoquinolin-6-yl)-4-(methoxymethyl)thiazol-2-amine]"
3,50 to 1000,"NC(CNc1ncc(-c2ccc3cnc(F)cc3c2)s1)Cn1ccc(C(F)(F)F)n1 (stereo in doubt) [Example 29, N—((S)-2-Amino-3-(3-(trifluoromethyl)-1H-pyrazol-1-yl)propyl)-5-(3-fluoroisoquinolin-6-yl)thiazol-2-amine]"
4,< 50,"CC(F)(F)c1ccc(C[C@H](N)CNc2ncc(-c3ccc4cnc(F)cc4c3)s2)cc1 [Example 3, N—((S)-2-Amino-3-(4-(1,1-difluoroethyl)phenyl)propyl)-5-(3-fluoroisoquinolin-6-yl)thiazol-2-amine]"
5,< 50,"N[C@H](CNc1ncc(-c2ccc3cnc(F)cc3c2)s1)Cc1ccc(Cl)cc1 [Example 5, N—((S)-2-Amino-3-(4-chlorophenyl)propyl)-5-(3-fluoroisoquinolin-6-yl)thiazol-2-amine]"
6,< 50,"COCc1nc(NC[C@@H](N)Cc2ccc(C(C)(F)F)nc2)sc1-c1ccc2cnc(F)cc2c1 [Example 6, N—((S)-2-Amino-3-(6-(1,1-difluoroethyl)pyridin-3-yl)propyl)-5-(3-fluoroisoquinolin-6-yl-4-(methoxymethyl)thiazol-2-amine trifluoroacetate]"
7,< 50,"COC(=O)c1nc(NC[C@@H](N)Cc2ccc(C(C)(F)F)nc2)sc1-c1ccc2cnc(F)cc2c1 [Example 8, Methyl 2-((S)-2-amino-3-(6-(1,1-difluoroethyl)pyridin-3-yl)propylamino)-5-(3-fluoroisoquinolin-6-yl)thiazole-4-carboxylate]"
8,< 50,"CC(F)(F)c1ccc(C[C@H](N)CNc2nc(CO)c(-c3ccc4cnc(F)cc4c3)s2)cn1 [Example 9, (2-((S)-2-Amino-3-(6-(1,1-difluoroethyl)pyridin-3-yl)propylamino)-5-(3-fluoroisoquinolin-6-yl)thiazol-4-yl)methanol]"
9,50 to 1000,"COC(=O)c1nc(NC[C@@H](N)[C@@H](C)c2ccc(C(F)(F)F)nc2)sc1-c1ccc2cnc(F)cc2c1 [Example 11, Methyl 2-((2S,3S)-2-amino-3-(6-(trifluoromethyl)pyridin-3-yl)butylamino)-5-(3-fluoroisoquinolin-6-yl)thiazole-4-carboxylate]"
10,< 50,"C[C@@H](c1ccc(C(F)(F)F)nc1)[C@H](N)CNc1nc(CO)c(-c2ccc3cnc(F)cc3c2)s1 [Example 12, (2-((2S,3S)-2-Amino-3-(6-(trifluoromethyl)pyridin-3-yl)butylamino)-5-(3-fluoroisoquinolin-6-yl)thiazol-4-yl)methanol]"
11,< 50,"COCc1nc(NC[C@@H](N)[C@@H](C)c2ccc(C(F)(F)F)nc2)sc1-c1ccc2cnc(F)cc2c1 [Example 13, N-((2S,3S)-2-Amino-3-(6-(trifluoromethyl)pyridin-3-yl)butyl)-5-(3-fluoroisoquinolin-6-yl)-4-(methoxymethyl)thiazol-2-amine]"
12,< 50,"N[C@H](CNc1ncc(-c2ccc3cnc(F)cc3c2)s1)Cc1ccc(Cl)c(Cl)c1 [Example 14, N—((S)-2-amino-3-(3,4-dichlorophenyl)propyl)-5-(3-fluoroisoquinolin-6-yl)thiazol-2-amine]"
13,< 50,"COC(=O)c1nc(NC[C@@H](N)Cc2ccc(C(F)(F)F)nc2)sc1-c1ccc2cnc(F)cc2c1 [Example 15, Methyl 2-((S)-2-amino-3-(6-(trifluoromethyl)pyridin-3-yl)propylamino)-5-(3-fluoroisoquinolin-6-yl)thiazole-4-carboxylate]"
14,< 50,"N[C@H](CNc1nc(CO)c(-c2ccc3cnc(F)cc3c2)s1)Cc1ccc(C(F)(F)F)nc1 [Example 16, (2-((S)-2-Amino-3-(6-(trifluoromethyl)pyridin-3-yl)propylamino)-5-(3-fluoroisoquinolin-6-yl)thiazol-4-yl)methanol]"
15,50 to 1000,CNC(=O)c1nc(NC[C@@H](N)Cc2ccc(C(F)(F)F)nc2)sc1-c1ccc2cnc(F)cc2c1 [Example 17]
16,1000 to 10000,"COCc1nc(NC[C@H](N)Cc2ccc(C(F)(F)F)nc2)sc1-c1ccc2cnc(F)cc2c1 [Example 19, N—((R)-2-Amino-3-(6-(trifluoromethyl)pyridin-3-yl)propyl)-5-(3-fluoroisoquinolin-6-yl)-4-(methoxymethyl)thiazol-2-amine]"
17,< 50,"COC(=O)c1nc(NC[C@@H](N)Cc2ccc(C(F)(F)F)cc2)sc1-c1ccc2cnc(F)cc2c1 [Example 20, Methyl 2-((S)-2-amino-3-(4-(trifluoromethyl)phenyl)propylamino)-5-(3-fluoroisoquinolin-6-yl)thiazole-4-carboxylate]"
18,< 50,"N[C@H](CNc1nc(CO)c(-c2ccc3cnc(F)cc3c2)s1)Cc1ccc(C(F)(F)F)cc1 [Example 21, (2-((S)-2-Amino-3-(4-(trifluoromethyl)phenyl)propylamino)-5-(3-fluoroisoquinolin-6-yl)thiazol-4-yl)methanol]"
19,50 to 1000,"CNC(=O)c1nc(NC[C@@H](N)Cc2ccc(C(F)(F)F)cc2)sc1-c1ccc2cnc(F)cc2c1 [Example 22, 2-((S)-2-Amino-3-(4-(trifluoromethyl)phenyl)propylamino)-5-(3-fluoroisoquinolin-6-yl)-N-methylthiazole-4-carboxamide trifluoroacetate]"
20,1000 to 10000,"N[C@H](CNc1nc(C(=O)NC2CC2)c(-c2ccc3cnc(F)cc3c2)s1)Cc1ccc(C(F)(F)F)cc1 [Example 23, 2-((S)-2-Amino-3-(4-(trifluoromethyl)phenyl)propylamino)-N-cyclopropyl-5-(3-fluoroisoquinolin-6-yl)thiazole-4-carboxamide]"

row,Structure (SMILES),IC50 [nM]
1,"CC(C)(C)OC(=O)N[C@@H](Cc1ccc(C(F)(F)F)nc1)CN(C(=O)OC(C)(C)C)c1ncc(-c2ccc3cnc(F)cc3c2)s1 [Example 1, tert-Butyl ((2S)-2-((tert-butoxycarbonyl)amino)-3-(6-(trifluoromethyl)-3-pyridinyl)propyl)(5-(3-fluoro-6-isoquinolinyl)-1,3-thiazol-2-yl)carbamate]",1000 to 10000

# System: not listed separately
# Assay: In vivo pharmacokinetics, IV and oral gavage
# Design: species or system male Sprague-Dawley rats
# Conditions: male, Sprague-Dawley, plasma; rat, IV 0.5 mg/kg
# Experimental: In vivo pharmacokinetic parameters were determined by measuring systemic plasma exposure in male Sprague-Dawley rats (Charles River Laboratories or Taconic, Oxnard, Calif.) by intravenous administration (N=3 fed rats: 2 mg/kg tail vein injection in DMSO) and oral gavage (N=3 fasted rats: 5 mg/kg in 1% Tween 80-2% HPMC-97% deionized water-pH 2.0 vehicle) (Comparative Example 18′ was only dosed IV and at 0.5 mg/kg). DMSO was obtained from Mallinckrodt Inc.; Tween 80 was obtained from Croda; HPMC is Methocel E50 Premium LV, obtained from Dow Excipients. Following oral administration, blood was drawn (250 μL) at 0.25, 0.5, 1, 2, 4, 6, 8, 12, and 16 hours. Following iv administration, blood was drawn (250 μL) at 0.083, 0.25, 0.5, 1, 2, 4, 6, 8, and 16 hours. Blood samples were drawn using a Culex® In Vivo Sampling System (BASi) and collected in BD Microtainer® tubes containing Lithium Heparin (BD). Plasma was obtained by centrifugation of blood at 14000 g and 2-8° C. for five minutes using an Eppendorf 5417R Centrifuge System. Plasma samples were mixed with 2× volume of acetonitrile (Sigma-Aldrich, St. Louis, Mo.). The mixture was stirred briefly using a vortex mixer and then centrifuged at 2867 g for 5 minutes in a Beckman Coulter Allegra 25R equipped with a Type S5700 rotor. The supernatant was removed and diluted 2× with mobile phase A (5/94.9/0.1 v/v/v MeOH/water/AcOH). Plasma concentrations were determined using liquid chromatography/tandem mass spectrometry, with electrospray ionization (ESI) and multiple reaction monitoring in the positive ion mode (Sciex API 3000 mass spectrometer connected to a Shimadzu LC-20AD pump and a LEAP PAL autosampler. Typical conditions used for HPLC were: mobile phase A=5/94.9/0.1 v/v/v MeOH/water/AcOH and mobile phase B=95/4.9/0.1 v/v/v MeOH/water/AcOH; HPLC column was a Varian MonoChrom C18.3μ for 2×30 mm and 51.1 for 2×50 mm) Instrument response was calibrated by a standard curve over 0.1-2000 ng/mL concentration range, and the lower limit of quantitation was 0.1-2.5 ng/mL. Peak areas were integrated on a Windows 2000 computer using the Sciex program Analyst® (Version 1.4.1). Following peak area integration, the data were exported to the software package (Watson® Non-GLP PROD (Version 7.0.0.01, Thermo Electron Corp., Waltham, Mass.)), where concentrations were determined by a weighted linear regression of peak area versus the nominal concentrations of the calibration standards. Calculations were performed on unrounded numbers. The Watson® Non-GLP PROD software was used to determine precision and accuracy for the calibration standards. Noncompartmental analysis of plasma concentration data was used to generate PK parameters such as clearance (CL, L/h/kg), volume of distribution (Vss, L/kg), area under the curve (AUC, ng·h/mL) and secondary parameters such as half-life (t1/2, h) and oral bioavailability (% F, %). This was done using WinNonlin Enterprise software (Version 5.1.1, from Pharsight Corp., Mountain View, Calif.). References for pharmacokinetic analysis include: Gabrielsson and Weiner (1997) Pharmacokinetic and Pharmacodynamic Data Analysis Concepts and Applications, 2nd ed., Swedish Pharmaceutical Press, Stockholm; Gibaldi and Perrier (1982) Pharmacokinetics, 2nd ed., Marcel Dekker, New York. Rowland and Tozer (1995) Clinical Pharmacokinetics: Concepts and Applications, 3rd ed., Lippincott Williams & Wilkins, Philadelphia.
row,clearance [mL/min/kg],Structure (SMILES)
1,237,"COCc1nc(NC[C@@H](N)Cc2ccc(C(F)(F)F)nc2)sc1-c1ccc2cnccc2c1 [Comparative Example 18′, (S)—N-1-(5-(Isoquinolin-6-yl)-4-(methoxymethyl)thiazol-2-yl)-3-(6-(trifluoromethyl)pyridin-3-yl)propane-1,2-diamine, reference compound]"

# Same assay, conditions: male, Sprague-Dawley, plasma; rat, IV 0.5 mg/kg; read-out: IV AUClast
row,AUC(0-t) [ng·h/mL],Structure (SMILES)
1,33,"COCc1nc(NC[C@@H](N)Cc2ccc(C(F)(F)F)nc2)sc1-c1ccc2cnccc2c1 [Comparative Example 18′, (S)—N-1-(5-(Isoquinolin-6-yl)-4-(methoxymethyl)thiazol-2-yl)-3-(6-(trifluoromethyl)pyridin-3-yl)propane-1,2-diamine, reference compound]"

# Same assay, conditions: male, Sprague-Dawley, plasma; rat, IV 0.5 mg/kg; read-out: IV Cmax
row,Cmax [ng/mL],Structure (SMILES)
1,73,"COCc1nc(NC[C@@H](N)Cc2ccc(C(F)(F)F)nc2)sc1-c1ccc2cnccc2c1 [Comparative Example 18′, (S)—N-1-(5-(Isoquinolin-6-yl)-4-(methoxymethyl)thiazol-2-yl)-3-(6-(trifluoromethyl)pyridin-3-yl)propane-1,2-diamine, reference compound]"

# Same assay, conditions: male, Sprague-Dawley, plasma; rat, IV 0.5 mg/kg; read-out: Vss
row,Vd [L/kg],Structure (SMILES)
1,6.44,"COCc1nc(NC[C@@H](N)Cc2ccc(C(F)(F)F)nc2)sc1-c1ccc2cnccc2c1 [Comparative Example 18′, (S)—N-1-(5-(Isoquinolin-6-yl)-4-(methoxymethyl)thiazol-2-yl)-3-(6-(trifluoromethyl)pyridin-3-yl)propane-1,2-diamine, reference compound]"
